Experimental data from patent US12295936B2, “Immunomodulating urea azalides” (Zoetis Services LLC, priority 2020, dated 2025).

What follows are compounds tested on BRD pathogens, M. haemolytica and P. multocida (assay: MIC screening panel of BRD pathogens (antibacterial / non-antibacterial)). Conditions: read-out: antibacterial / non-antibacterial (MIC for the BRD pathogens).
Compound `CCCN(C[C@]1(O)[C@H](C)O[C@@H](O[C@H]2[C@H](C)[C@@H](O[C@@H]3O[C@H](C)C[C@H](N(C)C(=O)N(C)c4ccccc4)[C@H]3O)[C@](C)(O)C[C@@H](C)CN[C@H](C)[C@@H](O)[C@](C)(O)[C@@H](CC)OC(=O)[C@@H]2C)C[C@@]1(C)OC)C(=O)N(C)c1ccccc1` [Example H-63, 1-((2S,3R,4S,6R)-2-(((2R,3S,4R,5R,8R,10R,11R,12S,13S,14R)-2-ethyl-3,4,10-trihydroxy-13-(((2R,4R,5S,6S)-5-hydroxy-4-methoxy-4,6-dimethyl-5-((3-methyl-3-phenyl-1-propylureido)methyl)tetrahydro-2H-pyran-2-yl)oxy)-3,5,8,10,12,14-hexamethyl-15-oxo-1-oxa-6-azacyclopentadecan-11-yl)oxy)-3-hydroxy-6-methyltetrahydro-2H-pyran-4-yl)-1,3-dimethyl-3-phenylurea] has an MIC of over 64 µg/mL.
With `CC[C@H]1OC(=O)[C@H](C)[C@@H](O[C@H]2C[C@@](C)(OC)[C@](O)(CN(CC)CC)[C@H](C)O2)[C@H](C)[C@@H](O[C@@H]2O[C@H](C)C[C@H](N(C)C(=O)Nc3ccccc3)[C@H]2O)[C@](C)(O)C[C@@H](C)CN[C@H](C)[C@@H](O)[C@]1(C)O` [Example H-4, 1-((2S,3R,4S,6R)-2-(((2R,3S,4R,5R,8R,10R,11R,12S,13S,14R)-13-(((2R,4R,5S,6S)-5-((diethylamino)methyl)-5-hydroxy-4-methoxy-4,6-dimethyltetrahydro-2H-pyran-2-yl)oxy)-2-ethyl-3,4,10-trihydroxy-3,5,8,10,12,14-hexamethyl-15-oxo-1-oxa-6-azacyclopentadecan-11-yl)oxy)-3-hydroxy-6-methyltetrahydro-2H-pyran-4-yl)-1-methyl-3-phenylurea] the MIC was over 64 µg/mL.
`CCCNC[C@]1(O)[C@H](C)O[C@@H](O[C@H]2[C@H](C)[C@@H](O[C@@H]3O[C@H](C)C[C@H](N(C)C(=O)N(c4ccccc4)C4CCOCC4)[C@H]3O)[C@](C)(O)C[C@@H](C)CN[C@H](C)[C@@H](O)[C@](C)(O)[C@@H](CC)OC(=O)[C@@H]2C)C[C@@]1(C)OC` [Example H-55, 1-((2S,3R,4S,6R)-2-(((2R,3S,4R,5R,8R,10R,11R,12S,13S,14R)-2-ethyl-3,4,10-trihydroxy-13-(((2R,4R,5S,6S)-5-hydroxy-4-methoxy-4,6-dimethyl-5-((propylamino)methyl)tetrahydro-2H-pyran-2-yl)oxy)-3,5,8,10,12,14-hexamethyl-15-oxo-1-oxa-6-azacyclopentadecan-11-yl)oxy)-3-hydroxy-6-methyltetrahydro-2H-pyran-4-yl)-1-methyl-3-phenyl-3-(tetrahydro-2H-pyran-4-yl)urea] gave an MIC of over 64 µg/mL.
`CC[C@H]1OC(=O)[C@H](C)[C@@H](O[C@H]2C[C@@](C)(OC)[C@](O)(CN3CCN(c4ncccn4)CC3)[C@H](C)O2)[C@H](C)[C@@H](O[C@@H]2O[C@H](C)C[C@H](N(C)C(=O)N(C)c3ccccc3)[C@H]2O)[C@](C)(O)C[C@@H](C)CN[C@H](C)[C@@H](O)[C@]1(C)O` [Example J-13, 1-((2S,3R,4S,6R)-2-(((2R,3S,4R,5R,8R,10R,11R,12S,13S,14R)-2-ethyl-3,4,10-trihydroxy-13-(((2R,4R,5S,6S)-5-hydroxy-4-methoxy-4,6-dimethyl-5-((4-(pyrimidin-2-yl)piperazin-1-yl)methyl)tetrahydro-2H-pyran-2-yl)oxy)-3,5,8,10,12,14-hexamethyl-15-oxo-1-oxa-6-azacyclopentadecan-11-yl)oxy)-3-hydroxy-6-methyltetrahydro-2H-pyran-4-yl)-1,3-dimethyl-3-phenylurea] showed an MIC of over 64 µg/mL.
With `CC[C@H]1OC(=O)[C@H](C)[C@@H](O)[C@H](C)[C@@H](O[C@@H]2O[C@H](C)C[C@H](N(C)C(=O)Nc3cc(C)n(C)n3)[C@H]2O)[C@](C)(O)C[C@@H](C)CN[C@H](C)[C@@H](O)[C@]1(C)O` [Example A-7, 3-(1,5-dimethyl-1H-pyrazol-3-yl)-1-((2S,3R,4S,6R)-2-(((2R,3S,4R,5R,8R,10R,11R,12S,13S,14R)-2-ethyl-3,4,10,13-tetrahydroxy-3,5,8,10,12,14-hexamethyl-15-oxo-1-oxa-6-azacyclopentadecan-11-yl)oxy)-3-hydroxy-6-methyltetrahydro-2H-pyran-4-yl)-1-methylurea] the MIC was over 64 µg/mL.
With `CC[C@H]1OC(=O)[C@H](C)[C@@H](O[C@H]2C[C@@](C)(OC)[C@](O)(CN(C)C)[C@H](C)O2)[C@H](C)[C@@H](O[C@@H]2O[C@H](C)C[C@H](N(C)C(=O)Nc3ccccc3)[C@H]2O)[C@](C)(O)C[C@@H](C)CN[C@H](C)[C@@H](O)[C@]1(C)O` [Example H-2, 1-((2S,3R,4S,6R)-2-(((2R,3S,4R,5R,8R,10R,11R,12S,13S,14R)-13-(((2R,4R,5S,6S)-5-((dimethylamino)methyl)-5-hydroxy-4-methoxy-4,6-dimethyltetrahydro-2H-pyran-2-yl)oxy)-2-ethyl-3,4,10-trihydroxy-3,5,8,10,12,14-hexamethyl-15-oxo-1-oxa-6-azacyclopentadecan-11-yl)oxy)-3-hydroxy-6-methyltetrahydro-2H-pyran-4-yl)-1-methyl-3-phenylurea] the MIC was over 64 µg/mL.
`CCCNC[C@]1(O)[C@H](C)O[C@@H](O[C@H]2[C@H](C)[C@@H](O[C@@H]3O[C@H](C)C[C@H](N(C)C(=O)N(C)c4cccnn4)[C@H]3O)[C@](C)(O)C[C@@H](C)CN[C@H](C)[C@@H](O)[C@](C)(O)[C@@H](CC)OC(=O)[C@@H]2C)C[C@@]1(C)OC` [Example H-48, 1-((2S,3R,4S,6R)-2-(((2R,3S,4R,5R,8R,10R,11R,12S,13S,14R)-2-ethyl-3,4,10-trihydroxy-13-(((2R,4R,5S,6S)-5-hydroxy-4-methoxy-4,6-dimethyl-5-((propylamino)methyl)tetrahydro-2H-pyran-2-yl)oxy)-3,5,8,10,12,14-hexamethyl-15-oxo-1-oxa-6-azacyclopentadecan-11-yl)oxy)-3-hydroxy-6-methyltetrahydro-2H-pyran-4-yl)-1,3-dimethyl-3-(pyridazin-3-yl)urea] gave an MIC of over 64 µg/mL.
`CCCNC[C@]1(O)[C@H](C)O[C@@H](O[C@H]2[C@H](C)[C@@H](O[C@@H]3O[C@H](C)C[C@H](N(C)C(=O)N(c4ccccc4)C(C)C)[C@H]3O)[C@](C)(O)C[C@@H](C)CN[C@H](C)[C@@H](O)[C@](C)(O)[C@@H](CC)OC(=O)[C@@H]2C)C[C@@]1(C)OC` [Example H-17, 1-((2S,3R,4S,6R)-2-(((2R,3S,4R,5R,8R,10R,11R,12S,13S,14R)-2-ethyl-3,4,10-trihydroxy-13-(((2R,4R,5S,6S)-5-hydroxy-4-methoxy-4,6-dimethyl-5-((propylamino)methyl)tetrahydro-2H-pyran-2-yl)oxy)-3,5,8,10,12,14-hexamethyl-15-oxo-1-oxa-6-azacyclopentadecan-11-yl)oxy)-3-hydroxy-6-methyltetrahydro-2H-pyran-4-yl)-3-isopropyl-1-methyl-3-phenylurea] showed an MIC of over 64 µg/mL.
